{"source": "patent US20240033283A1", "about": "“FUNCTIONALIZED AND CROSSLINKED POLYMERS” (PMIDG, LLC, priority 2020, published 2024)", "experiment": "Lidocaine release from gels (dialysis tubing)", "type": "physicochemical", "conditions": "PBS, 37° C.", "protocol": "HA and HA-DVS-MBA (83.3% substitution) gels were prepared in a similar manner as described in Example 18 using 0.75% BDDE and a pH of 13.1. About 2 g of each gel were added to a vial and 105 uL of a 6% (w/w) lidocaine HCl in PBS solution was added to each sample. After mixing, the samples were autoclaved for 5 minutes at 121° C. Approx. 1.5 g of each gel was transferred to dialysis tubing (Aldon Corporation, IS13027, 6.4 mm×10 mm, cut-off: 12-14 kDa). […] The loaded dialysis tubing was placed in separate 45 ml PBS solutions and incubated at 37° C. under oscillating conditions. […] The lidocaine content was measured using HPLC. The percent release was determined by released amount divided by the initial amount added. The release of the lidocaine from the HA and HA-MBA gels was similar.", "note": "Counter-ions that a name gives are not always drawn.", "data": [{"smiles": "CCN(CC)CC(=O)Nc1c(C)cccc1C", "note": "[Lidocaine only, lidocaine HCl]", "values": [{"measurement": "Cumulative Release (%)", "setting": "Time 0.5 hr", "result": 82, "unit": "%"}, {"measurement": "Cumulative Release (%)", "setting": "Time 1 hr", "result": 87, "unit": "%"}, {"measurement": "Cumulative Release (%)", "setting": "Time 1.5 hr", "result": 86, "unit": "%"}, {"measurement": "Cumulative Release (%)", "setting": "Time 2 hr", "result": 84, "unit": "%"}, {"measurement": "Cumulative Release (%)", "setting": "Time 3.5 hr", "result": 82, "unit": "%"}]}]}
